Reference: US20210382058A1, “PATIENT SELECTION FOR TREATMENT OF MYC POSITIVE CANCERS WITH INDENOISOQUINOLINES” (Purdue Research Foundation, priority 2020, published 2021)
Like-named read-outs stand apart in the source and are kept apart here.

Tests used:
[1] = test system: NCI-60 cancer cell lines; assay: NCI-60 cancer cell line drug screen (GI50, MGM); type: cell-based, human; conditions: Homo sapiens; for GI50: read-out: Antiproliferative Activities [GI50 (μM)]; for mean GI50 across NCI-60 panel (MGM): average of GI50 values across the entire panel of NCI-60 cancer cell lines
Description: Cancer cells were incubated with the test compounds at five concentrations ranging from 100 μM to 10 nM for 48 h. […] The approximate average of GI50 values across the entire panel of NCI-60 cancer cell lines for each compound was recorded as the MGM value.

[2] = target: T1, human topoisomerase I (Homo sapiens, UniProt P11387); conditions: relative topoisomerase I inhibition levels, previously determined, six levels (0 - 5, +++++ = 5); cited from earlier work
T1 sequence (P11387 1-765): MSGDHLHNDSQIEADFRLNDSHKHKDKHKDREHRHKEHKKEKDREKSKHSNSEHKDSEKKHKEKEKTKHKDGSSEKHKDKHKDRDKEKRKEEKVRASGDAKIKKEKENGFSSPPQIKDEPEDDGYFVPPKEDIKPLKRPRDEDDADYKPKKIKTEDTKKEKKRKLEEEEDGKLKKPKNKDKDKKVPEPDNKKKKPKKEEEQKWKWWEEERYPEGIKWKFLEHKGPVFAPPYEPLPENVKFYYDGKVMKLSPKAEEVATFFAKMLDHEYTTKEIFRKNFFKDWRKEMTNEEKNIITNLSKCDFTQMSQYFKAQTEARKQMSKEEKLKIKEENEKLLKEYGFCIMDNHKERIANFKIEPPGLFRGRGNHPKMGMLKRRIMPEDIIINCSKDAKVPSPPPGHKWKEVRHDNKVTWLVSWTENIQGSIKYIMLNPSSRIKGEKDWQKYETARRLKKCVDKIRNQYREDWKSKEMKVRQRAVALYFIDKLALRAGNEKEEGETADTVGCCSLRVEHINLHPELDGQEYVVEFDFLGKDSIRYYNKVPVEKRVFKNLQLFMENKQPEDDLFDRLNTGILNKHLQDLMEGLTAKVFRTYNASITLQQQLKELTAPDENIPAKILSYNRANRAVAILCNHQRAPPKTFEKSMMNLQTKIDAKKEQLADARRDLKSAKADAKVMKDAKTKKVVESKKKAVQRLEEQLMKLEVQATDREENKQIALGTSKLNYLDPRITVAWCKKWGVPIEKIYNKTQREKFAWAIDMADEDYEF

[3] = test system: MYC protein expression in MCF-7 breast cancer cells; assay: Western blotting of MYC protein level in MCF-7 cells; type: cell-based, human; conditions: Homo sapiens, MCF7; western blotting, MCF-7 cells, 0.5, 1, 2, and 4 μM, 24 hours; read-out: MYC Inhibition
Outline: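 MCF-7 cells were exposed to compounds at 0.5, 1, 2 and 4 μM for 24 hours at 37° C. MYC was detected by immunoblot with ECL, using rabbit anti-MYC (1:1000) and anti-GAPDH (1:2000) as loading control.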

[4] = A549, Non-Small Cell Lung Cancer, A549/ATCC
[5] = COLO 205, Colon Cancer, COLO 205
[6] = DU-145, Prostate Cancer, DU-145
[7] = HCC 2998, Colon Cancer, HCC-2998
[8] = HOP-62, Non-Small Cell Lung Cancer, HOP-62
[9] = HOP-92, Non-Small Cell Lung Cancer, HOP-92
[10] = MDA-MB-231, Breast Cancer, MDA-MB-231/ATCC
[11] = MDA-MB-435, Melanoma, MDA-MB-435
[12] = NCI-H23, Non-Small Cell Lung Cancer, NCI-H23
[13] = NCI-H226, Non-Small Cell Lung Cancer, NCI-H226
[14] = NCI-H322M, Non-Small Cell Lung Cancer, NCI-H322M
[15] = NCI-H460, Non-Small Cell Lung Cancer, NCI-H460
[16] = NCI-H522, Non-Small Cell Lung Cancer, NCI-H522
[17] = OVCAR-3, Ovarian Cancer, OVCAR-3
[18] = OVCAR-4, Ovarian Cancer, OVCAR-4
[19] = OVCAR-5, Ovarian Cancer, OVCAR-5
[20] = OVCAR-8, Ovarian Cancer, OVCAR-8
[21] = SK-OV-3, Ovarian Cancer, SK-OV-3

COc1ccc2c(c1)C(=O)c1c-2n(CCCN2CCOCC2)c(=O)c2ccccc12 [Compound 19]
GI50 ([1]; 786-0, Renal Cancer, 786-0): 1.78 µM
GI50 ([1]; A498, Renal Cancer, A498): 1.64 µM
GI50 [1, 4]: 1.96 µM
GI50 ([1]; ACHN, Renal Cancer, ACHN): 1.67 µM
GI50 ([1]; BT-549, Breast Cancer, BT-549): 4.11 µM
GI50 ([1]; CAKI-1, Renal Cancer, CAKI-1): 3.17 µM
GI50 ([1]; CCRF-CEM, Leukemia, CCRF-CEM): 1.57 µM
GI50 [1, 5]: 1.74 µM
GI50 [1, 6]: 2.31 µM
GI50 ([1]; EKVX, Non-Small Cell Lung Cancer, EKVX): 4.91 µM
GI50 [1, 7]: 3.44 µM
GI50 ([1]; HCT-15, Colon Cancer, HCT-15): 2.9 µM
GI50 ([1]; HCT-116, Colon Cancer, HCT-116): 1.27 µM
GI50 ([1]; HL-60, Leukemia, HL-60(TB)): 4.28 µM
GI50 [1, 8]: 1.41 µM
GI50 [1, 9]: 4.47 µM
GI50 ([1]; HT-29, Colon Cancer, HT29): 2.48 µM
GI50 ([1]; Hs-578T, Breast Cancer, HS 578T): 8.95 µM
GI50 ([1]; K562, Leukemia, K-562): 5.13 µM
GI50 ([1]; KM12, Colon Cancer, KM12): 3.8 µM
GI50 ([1]; LOX IMVI, Melanoma, LOX IMVI): 1.34 µM
GI50 ([1]; Leukemia, SR): 0.29 µM
GI50 ([1]; MCF7, Breast Cancer, MCF7): 0.2 µM
GI50 [1, 10]: 11.2 µM
GI50 [1, 11]: 4.67 µM
GI50 ([1]; MOLT-4, Leukemia, MOLT-4): 0.87 µM
GI50 ([1]; Malme-3M, Melanoma, MALME-3M): 4.49 µM
GI50 ([1]; Melanoma, M14): 2.85 µM
GI50 [1, 12]: 3.1 µM
GI50 [1, 13]: 2.79 µM
GI50 [1, 14]: 5.44 µM
GI50 [1, 15]: 0.44 µM
GI50 [1, 16]: 1.06 µM
GI50 [1, 17]: 2.7 µM
GI50 [1, 18]: 3.13 µM
GI50 [1, 19]: 6.31 µM
GI50 [1, 20]: 3.11 µM
GI50 ([1]; Ovarian Cancer, NCl/ADR-RES): 3.14 µM
GI50 ([1]; Prostate Cancer, PC-3): 19.5 µM
GI50 ([1]; RPMI-8226, Leukemia, RPMI-8226): 1.85 µM
GI50 ([1]; RXF 393, Renal Cancer, RXF 393): 7.16 µM
GI50 ([1]; Renal Cancer, U0-31): 0.42 µM
GI50 ([1]; SF-268, CNS Cancer, SF-268): 1.75 µM
GI50 ([1]; SF-295, CNS Cancer, SF-295): 1.27 µM
GI50 ([1]; SF-539, CNS Cancer, SF-539): 1.96 µM
GI50 ([1]; SK-MEL-2, Melanoma, SK-MEL-2): 19.5 µM
GI50 ([1]; SK-MEL-5, Melanoma, SK-MEL-5): 1.5 µM
GI50 ([1]; SK-MEL-28, Melanoma, SK-MEL-28): 8.03 µM
GI50 [1, 21]: 2.67 µM
GI50 ([1]; SN12C, Renal Cancer, SN12C): 4.1 µM
GI50 ([1]; SNB-19, CNS Cancer, SNB-19): 2.13 µM
GI50 ([1]; SNB-75, CNS Cancer, SNB-75): 3.63 µM
GI50 ([1]; SW-620, Colon Cancer, SW-620): 1.68 µM
GI50 ([1]; T47D, Breast Cancer, T-47D): 1.07 µM
GI50 ([1]; TK-10, Renal Cancer, TK-10): 4.63 µM
GI50 ([1]; U-251, CNS Cancer, U251): 1.72 µM
GI50 ([1]; UACC-62, Melanoma, UACC-62): 1.58 µM
GI50 ([1]; UACC-257, Melanoma, UACC-257): 6.6 µM
mean GI50 across NCI-60 panel (MGM) [1]: 2570 nM
Top1 Inhibiton [2]: +++ (strong inhibition, +++, MYC expression inhibited at 0.5 to 1.0 μM)
minimal effective concentration [3]: 2 µM

COc1cc2c(cc1O)-c1c(c3ccc([N+](=O)[O-])cc3c(=O)n1CCCN)C2=O [Compound 38]
GI50 ([1]; 786-0, Renal Cancer, 786-0): 0.34 µM
GI50 ([1]; A498, Renal Cancer, A498): 0.96 µM
GI50 [1, 4]: 1.31 µM
GI50 ([1]; ACHN, Renal Cancer, ACHN): 0.28 µM
GI50 ([1]; BT-549, Breast Cancer, BT-549): 0.36 µM
GI50 ([1]; CAKI-1, Renal Cancer, CAKI-1): 0.29 µM
GI50 ([1]; CCRF-CEM, Leukemia, CCRF-CEM): 0.11 µM
GI50 [1, 5]: 0.69 µM
GI50 [1, 6]: 0.43 µM
GI50 [1, 7]: 0.62 µM
GI50 ([1]; HCT-15, Colon Cancer, HCT-15): 1.49 µM
GI50 ([1]; HCT-116, Colon Cancer, HCT-116): 0.15 µM
GI50 ([1]; HL-60, Leukemia, HL-60(TB)): 1.48 µM
GI50 [1, 8]: 0.46 µM
GI50 [1, 9]: 1.34 µM
GI50 ([1]; HT-29, Colon Cancer, HT29): 0.48 µM
GI50 ([1]; IGROV-1, Ovarian Cancer, IGROV1): 1.24 µM
GI50 ([1]; K562, Leukemia, K-562): 0.77 µM
GI50 ([1]; KM12, Colon Cancer, KM12): 1.34 µM
GI50 ([1]; LOX IMVI, Melanoma, LOX IMVI): 0.3 µM
GI50 ([1]; Leukemia, SR): 0.04 µM
GI50 ([1]; MCF7, Breast Cancer, MCF7): 0.16 µM
GI50 [1, 10]: 1.57 µM
GI50 [1, 11]: 1.3 µM
GI50 ([1]; MDA-MB-468, Breast Cancer, MDA-MB-468): 0.24 µM
GI50 ([1]; MOLT-4, Leukemia, MOLT-4): 0.15 µM
GI50 ([1]; Malme-3M, Melanoma, MALME-3M): 2.16 µM
GI50 ([1]; Melanoma, M14): 0.46 µM
GI50 [1, 12]: 0.38 µM
GI50 [1, 13]: 1.18 µM
GI50 [1, 14]: 1.39 µM
GI50 [1, 15]: 0.37 µM
GI50 [1, 16]: 0.78 µM
GI50 [1, 17]: 1.69 µM
GI50 [1, 18]: 1.11 µM
GI50 [1, 19]: 1.67 µM
GI50 [1, 20]: 1.01 µM
GI50 ([1]; Ovarian Cancer, NCl/ADR-RES): 2.55 µM
GI50 ([1]; Prostate Cancer, PC-3): 0.64 µM
GI50 ([1]; RPMI-8226, Leukemia, RPMI-8226): 1.02 µM
GI50 ([1]; RXF 393, Renal Cancer, RXF 393): 1.13 µM
GI50 ([1]; Renal Cancer, U0-31): 0.69 µM
GI50 ([1]; SF-268, CNS Cancer, SF-268): 0.55 µM
GI50 ([1]; SF-295, CNS Cancer, SF-295): 0.28 µM
GI50 ([1]; SF-539, CNS Cancer, SF-539): 0.67 µM
GI50 ([1]; SK-MEL-2, Melanoma, SK-MEL-2): 2.18 µM
GI50 ([1]; SK-MEL-5, Melanoma, SK-MEL-5): 1.26 µM
GI50 ([1]; SK-MEL-28, Melanoma, SK-MEL-28): 1.88 µM
GI50 [1, 21]: 1.15 µM
GI50 ([1]; SN12C, Renal Cancer, SN12C): 0.45 µM
GI50 ([1]; SNB-19, CNS Cancer, SNB-19): 1.08 µM
GI50 ([1]; SNB-75, CNS Cancer, SNB-75): 0.16 µM
GI50 ([1]; SW-620, Colon Cancer, SW-620): 0.34 µM
GI50 ([1]; T47D, Breast Cancer, T-47D): 0.7 µM
GI50 ([1]; TK-10, Renal Cancer, TK-10): 1.85 µM
GI50 ([1]; U-251, CNS Cancer, U251): 0.33 µM
GI50 ([1]; UACC-62, Melanoma, UACC-62): 0.95 µM
GI50 ([1]; UACC-257, Melanoma, UACC-257): 1.57 µM
mean GI50 across NCI-60 panel (MGM) [1]: 660 nM
Top1 Inhibiton [2]: ++ (medium inhibition, ++, MYC expression inhibited at 2.0 μM, or no clear dose-dependent MYC inhibition)
minimal effective concentration [3]: 4 µM
